Key:
[1] = LogD7.4 measurement, shake flask method; type: physicochemical; settings: n-octanol/DPBS pH 7.4, n = 3
Description: The logD7.4 values of all the ^177Lu-labeled GRPR-targeted ligands were measured using the shake flask method as previously reported. An aliquot (~2 MBq) of the radiolabeled product was added to a mixture of n-octanol (3 mL) and DPBS (3 mL, pH 7.4), followed by 1 min vortexing and 15 min centrifugation at 5000 rpm. Samples of the n-octanol (1 mL) and buffer (1 mL) layers were collected, and the activity was counted using a gamma counter. The logD7.4 values were calculated using the following equation: logD7.4=log10[countsn−octanolphase/countsbutterphase]

[2] = Ex vivo biodistribution in PC-3 tumor-bearing mice; settings: mouse; for tissue uptake at 4 h: 4 h post-injection; for tissue uptake at 24 h: 24 h post-injection; for tissue uptake at 72 h: 72 h post-injection; for tissue uptake at 120 h: 120 h post-injection
Description: (§1) SPECT/CT imaging experiments were performed using an MILabs (Houten, The Netherlands) U-SPECT-II/CT scanner with a custom-made ultra-high-sensitivity big mouse collimator (2 mm pinhole size) following previously reported procedures. […] Male NOD.Cg-Rag1^tm1Mom Il2rg^tm1Wjl/SzJ (NRG) mice were used in these experiments because of their immunodeficient characteristics and excellent radiation tolerance. Mice were anaesthetized and subcutaneously implanted with 5 × 10^6 PC-3 prostate cancer cells (100 µL; 1:1 PBS/Matrigel) behind the left shoulder. SPECT/CT imaging and biodistribution studies were performed once the tumors reached a diameter of 5–8 mm, typically after approximately 4 weeks of growth.
(§2) For ex vivo biodistribution studies, the mice were injected with ~2–6 MBq of the radioligand. […] Blocking study was conducted at 1 h post-injection via co-injection of the radioligand with 100 μg of [D-Phe^6,Leu-NHEt^13,des-Met^14]Bombesin(6–14). Organs/tissues of interested were collected, weighed, and measured using an automatic gamma counter.

PC-3 tumor-bearing mice = assay: Ex vivo biodistribution in PC-3 tumor-bearing mice
Description: as §1, §2

[3] = system: PC-3 tumor-bearing NRG mouse; assay: Longitudinal SPECT/CT imaging in PC-3 tumor-bearing mice; type: in vivo, mice (NRG); settings: SPECT/CT images
Description: The PC-3 tumor-bearing mice were sedated (2.5% isoflurane in O2) and injected with ^177Lu-labeled ligands (15–32 MBq) through a lateral caudal tail vein. […] At each time point, a 5 min CT scan was obtained using 615 μA and 60 kV parameters for localization and attenuation, followed by 2 × 30 min static SPECT scans acquired in list mode with an energy window centered around 208 keV. The MILabs U-SPECT II reconstruction software (version 8.00) was used to reconstruct data, and the images were decay corrected to the time of injection with PMOD v 3.402 (PMOD Technologies GmbH, Fallanden, Switzerland).

[4] = PC-3 tumor, Uptake in PC-3 tumor
[5] = adrenal glands, Uptake in adrenal glands
[6] = large intestine, Uptake in large intestine
[7] = small intestine, Uptake in small intestine
[8] = 1 h post-injection, 100 µg [D-Phe6,Leu-NHEt13,des-Met14]Bombesin(6–14)

CC(C)C[C@@H](CN1CSC[C@H]1C(N)=O)NC(=O)[C@H](Cc1cnc[nH]1)NC(=O)CN(C)C(=O)[C@@H](NC(=O)[C@H](C)NC(=O)[C@H](Cc1c[nH]c2ccccc12)NC(=O)[C@H](CCC(N)=O)NC(=O)[C@@H](Cc1ccccc1)NC(=O)CN1CCC(NC(=O)CN2CCN(CC(=O)O)CCN(CC(=O)O)CCN(CC(=O)O)CC2)CC1)C(C)C [[^177Lu]Lu-TacsBOMB5, metal not drawn]
logD [1]: -2.53 ± 0.2
tissue uptake at 1 h ([2]; PC-3 tumor, 100 ug, Uptake in PC-3 tumor, 1 h blocked (co-injected with 100 µg [D-Phe6,Leu-NHEt13,des-Met14]Bombesin(6-14))): 2.53 ± 0.34 %ID/g
tissue uptake at 1 h ([2]; PC-3 tumor, Uptake in PC-3 tumor, 1 h post-injection): 8.71 ± 0.53 %ID/g
tissue uptake at 4 h [2, 4]: 4.8 ± 0.32 %ID/g
tissue uptake at 24 h [2, 4]: 1.77 ± 0.27 %ID/g
tissue uptake at 72 h [2, 4]: 1.09 ± 0.19 %ID/g
tissue uptake at 120 h [2, 4]: < 1 %ID/g
tissue uptake at 1 h ([2]; adrenal glands, 100 ug, Uptake in adrenal glands, 1 h blocked (co-injected with 100 µg [D-Phe6,Leu-NHEt13,des-Met14]Bombesin(6-14))): 0.17 ± 0.04 %ID/g
tissue uptake at 1 h ([2]; adrenal glands, Uptake in adrenal glands, 1 h post-injection): 0.61 ± 0.28 %ID/g
tissue uptake at 4 h [2, 5]: 0.29 ± 0.07 %ID/g
tissue uptake at 24 h [2, 5]: 0.17 ± 0.02 %ID/g
tissue uptake at 72 h [2, 5]: 0.18 ± 0.12 %ID/g
tissue uptake at 120 h [2, 5]: 0.12 ± 0.08 %ID/g
tissue uptake at 1 h ([2]; blood, 100 ug, Uptake in blood, 1 h blocked (co-injected with 100 µg [D-Phe6,Leu-NHEt13,des-Met14]Bombesin(6-14))): 0.45 ± 0.11 %ID/g
tissue uptake at 1 h ([2]; blood, Uptake in blood, 1 h post-injection): 1.77 ± 0.14 %ID/g
tissue uptake at 24 h ([2]; blood, Uptake in blood): 0.21 ± 0.02 %ID/g
tissue uptake at 72 h ([2]; blood, Uptake in blood): 0.07 ± 0.01 %ID/g
tissue uptake at 1 h ([2]; bone, 100 ug, Uptake in bone, 1 h blocked (co-injected with 100 µg [D-Phe6,Leu-NHEt13,des-Met14]Bombesin(6-14))): 0.06 ± 0.03 %ID/g
tissue uptake at 1 h ([2]; bone, Uptake in bone, 1 h post-injection): 0.12 ± 0.02 %ID/g
tissue uptake at 4 h ([2]; bone, Uptake in bone): 0.09 ± 0.03 %ID/g
tissue uptake at 24 h ([2]; bone, Uptake in bone): 0.07 ± 0.02 %ID/g
tissue uptake at 72 h ([2]; bone, Uptake in bone): 0.07 ± 0.01 %ID/g
tissue uptake at 120 h ([2]; bone, Uptake in bone): 0.07 ± 0.01 %ID/g
tissue uptake at 1 h ([2]; brain, 100 ug, Uptake in brain, 1 h blocked (co-injected with 100 µg [D-Phe6,Leu-NHEt13,des-Met14]Bombesin(6-14))): 0.02 %ID/g
tissue uptake at 1 h ([2]; brain, Uptake in brain, 1 h post-injection): 0.04 %ID/g
tissue uptake at 4 h ([2]; brain, Uptake in brain): 0.02 %ID/g
tissue uptake at 1 h ([2]; fat, 100 ug, Uptake in fat, 1 h blocked (co-injected with 100 µg [D-Phe6,Leu-NHEt13,des-Met14]Bombesin(6-14))): 0.06 ± 0.01 %ID/g
tissue uptake at 1 h ([2]; fat, Uptake in fat, 1 h post-injection): 0.15 ± 0.04 %ID/g
tissue uptake at 4 h ([2]; fat, Uptake in fat): 0.06 ± 0.01 %ID/g
tissue uptake at 72 h ([2]; fat, Uptake in fat): 0.02 ± 0.01 %ID/g
tissue uptake at 120 h ([2]; fat, Uptake in fat): 0.01 ± 0.01 %ID/g
tissue uptake at 1 h ([2]; heart, 100 ug, Uptake in heart, 1 h blocked (co-injected with 100 µg [D-Phe6,Leu-NHEt13,des-Met14]Bombesin(6-14))): 0.15 ± 0.02 %ID/g
tissue uptake at 1 h ([2]; heart, Uptake in heart, 1 h post-injection): 0.45 ± 0.06 %ID/g
tissue uptake at 4 h ([2]; heart, Uptake in heart): 0.21 ± 0.03 %ID/g
tissue uptake at 24 h ([2]; heart, Uptake in heart): 0.09 ± 0.01 %ID/g
tissue uptake at 72 h ([2]; heart, Uptake in heart): 0.05 ± 0.01 %ID/g
tissue uptake at 120 h ([2]; heart, Uptake in heart): 0.04 ± 0.01 %ID/g
tissue uptake at 4 h ([2]; in vivo, Uptake in blood): 0.85 ± 0.03 %ID/g
tissue uptake at 24 h ([2]; in vivo, Uptake in pancreas): 0.08 ± 0.02 %ID/g
tissue uptake at 72 h ([2]; in vivo, Uptake in testes): 0.08 ± 0.04 %ID/g
tissue uptake at 120 h ([2]; in vivo, Uptake in testes): 0.08 ± 0.02 %ID/g
tissue uptake at 1 h ([2]; kidneys, 100 ug, Uptake in kidneys, 1 h blocked (co-injected with 100 µg [D-Phe6,Leu-NHEt13,des-Met14]Bombesin(6-14))): 2.78 ± 0.51 %ID/g
tissue uptake at 1 h ([2]; kidneys, Uptake in kidneys, 1 h post-injection): 3.47 ± 0.29 %ID/g
tissue uptake at 4 h ([2]; kidneys, Uptake in kidneys): 3.1 ± 0.35 %ID/g
tissue uptake at 24 h ([2]; kidneys, Uptake in kidneys): 1.38 ± 0.18 %ID/g
tissue uptake at 72 h ([2]; kidneys, Uptake in kidneys): 0.6 ± 0.07 %ID/g
tissue uptake at 120 h ([2]; kidneys, Uptake in kidneys): 0.39 ± 0.11 %ID/g
tissue uptake at 1 h ([2]; large intestine, 100 ug, Uptake in large intestine, 1 h blocked (co-injected with 100 µg [D-Phe6,Leu-NHEt13,des-Met14]Bombesin(6-14))): 0.13 ± 0.04 %ID/g
tissue uptake at 1 h ([2]; large intestine, Uptake in large intestine, 1 h post-injection): 0.31 ± 0.09 %ID/g
tissue uptake at 4 h [2, 6]: 0.42 ± 0.09 %ID/g
tissue uptake at 24 h [2, 6]: 0.42 ± 0.25 %ID/g
tissue uptake at 1 h ([2]; liver, 100 ug, Uptake in liver, 1 h blocked (co-injected with 100 µg [D-Phe6,Leu-NHEt13,des-Met14]Bombesin(6-14))): 0.29 ± 0.05 %ID/g
tissue uptake at 1 h ([2]; liver, Uptake in liver, 1 h post-injection): 0.67 ± 0.07 %ID/g
tissue uptake at 4 h ([2]; liver, Uptake in liver): 0.54 ± 0.04 %ID/g
tissue uptake at 24 h ([2]; liver, Uptake in liver): 0.29 ± 0.02 %ID/g
tissue uptake at 120 h ([2]; liver, Uptake in liver): 0.16 ± 0.07 %ID/g
tissue uptake at 1 h ([2]; lungs, 100 ug, Uptake in lungs, 1 h blocked (co-injected with 100 µg [D-Phe6,Leu-NHEt13,des-Met14]Bombesin(6-14))): 0.37 ± 0.04 %ID/g
tissue uptake at 1 h ([2]; lungs, Uptake in lungs, 1 h post-injection): 2.2 ± 0.93 %ID/g
tissue uptake at 4 h ([2]; lungs, Uptake in lungs): 1.45 ± 0.34 %ID/g
tissue uptake at 24 h ([2]; lungs, Uptake in lungs): 0.25 ± 0.03 %ID/g
tissue uptake at 72 h ([2]; lungs, Uptake in lungs): 0.13 ± 0.01 %ID/g
tissue uptake at 120 h ([2]; lungs, Uptake in lungs): 0.07 ± 0.03 %ID/g
tissue uptake at 1 h ([2]; muscle, 100 ug, Uptake in muscle, 1 h blocked (co-injected with 100 µg [D-Phe6,Leu-NHEt13,des-Met14]Bombesin(6-14))): 0.13 ± 0.03 %ID/g
tissue uptake at 1 h ([2]; muscle, Uptake in muscle, 1 h post-injection): 0.22 ± 0.01 %ID/g
tissue uptake at 72 h ([2]; muscle, Uptake in muscle): 0.02 %ID/g
tissue uptake at 120 h ([2]; muscle, Uptake in muscle): 0.01 %ID/g
tissue uptake at 1 h ([2]; pancreas, 100 ug, Uptake in pancreas, 1 h blocked (co-injected with 100 µg [D-Phe6,Leu-NHEt13,des-Met14]Bombesin(6-14))): 0.59 ± 0.11 %ID/g
tissue uptake at 1 h ([2]; pancreas, Uptake in pancreas, 1 h post-injection): 1.08 ± 0.22 %ID/g
tissue uptake at 4 h ([2]; pancreas, Uptake in pancreas): 0.21 ± 0.01 %ID/g
tissue uptake at 72 h ([2]; pancreas, Uptake in pancreas): 0.04 ± 0.01 %ID/g
tissue uptake at 120 h ([2]; pancreas, Uptake in pancreas): 0.02 %ID/g
tissue uptake at 1 h ([2]; small intestine, 100 ug, Uptake in small intestine, 1 h blocked (co-injected with 100 µg [D-Phe6,Leu-NHEt13,des-Met14]Bombesin(6-14))): 0.26 ± 0.04 %ID/g
tissue uptake at 1 h ([2]; small intestine, Uptake in small intestine, 1 h post-injection): 0.6 ± 0.16 %ID/g
tissue uptake at 4 h [2, 7]: 0.19 ± 0.05 %ID/g
tissue uptake at 24 h [2, 7]: 0.09 ± 0.03 %ID/g
tissue uptake at 120 h [2, 7]: 0.02 %ID/g
tissue uptake at 1 h ([2]; spleen, 100 ug, Uptake in spleen, 1 h blocked (co-injected with 100 µg [D-Phe6,Leu-NHEt13,des-Met14]Bombesin(6-14))): 0.15 ± 0.02 %ID/g
tissue uptake at 1 h ([2]; spleen, Uptake in spleen, 1 h post-injection): 0.31 ± 0.03 %ID/g
tissue uptake at 24 h ([2]; spleen, Uptake in spleen): 0.16 ± 0.03 %ID/g
tissue uptake at 72 h ([2]; spleen, Uptake in spleen): 0.18 ± 0.05 %ID/g
tissue uptake at 120 h ([2]; spleen, Uptake in spleen): 0.14 ± 0.06 %ID/g
tissue uptake at 1 h ([2]; stomach, 100 ug, Uptake in stomach, 1 h blocked (co-injected with 100 µg [D-Phe6,Leu-NHEt13,des-Met14]Bombesin(6-14))): 0.06 ± 0.01 %ID/g
tissue uptake at 24 h ([2]; stomach, Uptake in stomach): 0.27 ± 0.16 %ID/g
tissue uptake at 120 h ([2]; stomach, Uptake in stomach): 0.02 ± 0.02 %ID/g
tissue uptake at 1 h ([2]; testes, 100 ug, Uptake in testes, 1 h blocked (co-injected with 100 µg [D-Phe6,Leu-NHEt13,des-Met14]Bombesin(6-14))): 0.18 ± 0.02 %ID/g
tissue uptake at 1 h ([2]; testes, Uptake in testes, 1 h post-injection): 0.45 ± 0.11 %ID/g
tissue uptake at 24 h ([2]; testes, Uptake in testes): 0.12 ± 0.02 %ID/g
reduction of average pancreas uptake by co-injection of blocker (PC-3 tumor-bearing mice; [8]): 45%
reduction of average tumor uptake by co-injection of blocker (PC-3 tumor-bearing mice; [8]): 71%
uptake in PC-3 tumor xenografts cleared within 24 h (PC-3 tumor-bearing mice; relative to 1 h uptake): Approximately 80%
excretion pathway [3]: excreted mainly via the renal pathway
